Measured values reported in PubChem BioAssay AID602210 (Sanford-Burnham Center for Chemical Genomics, 2012).
Calls of active or inactive are those of the source. The rule behind the calls is not given here.

Experiment: modulators of 2-deoxyglucose-induced H9c2 death, dose response, myocardial damage modulator project, cell-based, ATPlite luminescence, rat, set 2 (AID 602210)
Conditions: H9c2 rat cardiomyoblasts, 2-deoxyglucose-induced death, 2 h

Row | Structure (SMILES) | IC50
1 | COc1ccc(-c2cc(NC=O)c3ncc(-c4ccc(C(C)=O)cc4)n3c2)cn1 | 10.1 µM (inactive)
2 | COCCCNC(=O)/C(C#N)=C1\N=C(NC(=O)c2cccs2)c2ccccc21 | > 79 µM (inactive)
3 | NC(=O)c1cc2ccccc2o/c1=N\NC(=O)c1ccc(F)cc1 | 7.99 µM
4 | CCOc1ccc2[nH]c(=O)c(CN(Cc3nnnn3Cc3ccco3)C3CCCCC3)cc2c1 | 9.18 µM
5 | COc1ccc(-c2cc(C(F)(F)F)n3nc(C(=O)N4CCN(C(=O)c5ccco5)CC4)cc3n2)cc1 | 3.79 µM
6 | CCC1(CC)NC(=O)N(CC(=O)OCC(=O)Nc2ccccc2[N+](=O)[O-])C1=O | 21.4 µM (inactive)
7 | COc1ccc(CCNC(=O)C(=O)NCC2CCCN2S(=O)(=O)c2ccccc2)cc1OC (stereo not given) | 15.4 µM (inactive)
8 | COC(=O)c1[nH]c2ccccc2c1NC(=O)CNC1CCCCC1 | 13.5 µM (inactive)
9 | COc1ccc2c(c1OC)c(=O)n1c3ccc(OC(C)C(=O)NCCN4CCOCC4)cc3c3ccnc2c31 (stereo not given) | 46.6 µM (inactive)
10 | COC(=O)c1ccccc1NC(=O)c1ccc2nccnc2c1 | 48.8 µM (inactive)
11 | c1cncc(-c2nc(NCC3COc4ccccc4O3)c3ccccc3n2)c1 (stereo not given) | > 79 µM (inactive)
12 | O=C(Nc1ccccc1)c1nc[nH]c1C(=O)NCCNC(=O)c1[nH]cnc1C(=O)Nc1ccccc1 | 1.17 µM
13 | CC(=O)c1ccc(-c2cnc3c(NC=O)cc(-c4cccc(NS(C)(=O)=O)c4)cn23)cc1 | 18 µM (inactive)
14 | Cc1c(/C=N/NC(=O)c2ccc(O)cc2)c2ccccn2c1C(=O)c1ccc(F)cc1 | > 79 µM (inactive)
15 | N#Cc1c(-c2ccco2)cc(-c2ccccn2)nc1N | 37.2 µM (inactive)
16 | CCCOc1ccc2[nH]c(C(=O)N/N=C/c3cc(OC)c(OC)c(OC)c3)cc2c1 | > 79 µM (inactive)
17 | COc1ccc2oc(C(=O)Nc3ccc(N4CCOCC4)cc3)c(C)c2c1 | > 79 µM (inactive)
18 | COc1cccc(CN(C)C(=O)C(Cc2ccccc2)NC(=O)c2ccccc2)c1OC (stereo not given) | 20.8 µM (inactive)
19 | CC(C)(C)OC(=O)CNC(=O)c1[nH]cnc1C(=O)Nc1ccc(CNC(=O)OC(C)(C)C)cc1 | 5.09 µM
20 | CCOC(=O)C1=C(CC)Nc2ccccc2N=C1NC(=O)c1ccc(S(=O)(=O)N(C)C)cc1 | > 79 µM (inactive)
21 | CCn1c(SCC(=O)Nc2ccccc2N2CCCCC2)nc2c1c(=O)n(C)c(=O)n2C | 16.4 µM (inactive)
22 | CCOc1ccccc1NC(=O)c1oc2ccccc2c1NC(=O)C1CCCO1 (stereo not given) | 12.6 µM (inactive)
23 | Fc1ccc(CSc2ccc3nnc(-c4cccnc4)n3n2)cc1 | 44.5 µM (inactive)

Row | Structure (SMILES) | IC50
24 | COc1cc(C(=O)Nc2cccc(-c3nnc(-c4ccco4)o3)c2)ccc1OC(C)=O | 9.42 µM
25 | COc1ccc(OC)c(Nc2nc(N)c([N+](=O)[O-])c(N3CCOCC3)n2)c1 | 27.5 µM (inactive)
26 | O=C(Cn1nc(C(=O)O)c2ccccc2c1=O)c1c[nH]c2ccccc12 | 40.1 µM (inactive)
27 | CCOc1ncccc1C(=O)Nc1cccc(-c2nc3cccnc3s2)c1 | 7 µM
28 | CC(=O)Nc1ccc(S(=O)(=O)N(Cc2cccnc2)Cc2cc3ccccc3[nH]c2=O)cc1 | 5.82 µM
29 | COc1cc(/C=C/c2nc(-c3ccccc3O)n[nH]2)cc(OC)c1OC | > 79 µM (inactive)
30 | Cc1ccc(S(=O)(=O)N2CCN(C(=O)c3cc(=O)[nH]c4ccccc34)CC2)c(C)c1 | 23 µM (inactive)
31 | C/C(=N\Nc1nnc2c3ccccc3n(C)c2n1)c1ccc(C)o1 | 12.3 µM (inactive)
32 | Cc1ccc2cc3c(NC(=O)c4cccnc4)nn(C)c3nc2c1 | 18.5 µM (inactive)
33 | O=C(CCCn1c(SCC(=O)c2ccc(O)c(O)c2)nc2ccccc2c1=O)NCC1CCCO1 (stereo not given) | 36.8 µM (inactive)
34 | Cn1c(=O)[nH]c(=O)c2c1nc(N(CCO)Cc1ccccc1)n2CCCc1ccccc1 | > 79 µM (inactive)
35 | COc1ccc(CSc2nc3ccccc3c(=O)[nH]2)cc1F | > 79 µM (inactive)
36 | O=C(N/N=C/c1ccc(-c2cccc([N+](=O)[O-])c2)o1)c1ccc([N+](=O)[O-])cc1 | 11.8 µM (inactive)
37 | COc1ccccc1NC(=O)c1cc(-c2cc(OC)c(OC)c(OC)c2)nc2ccccc12 | 8.68 µM
38 | COc1ccc(C(=O)Nc2cccc(NC(=O)c3ccc(OC)c(OC)c3)n2)cc1OC | 5.47 µM
39 | CC1(c2ccccc2)NC(=O)N(CC(=O)Nc2cccc(/C=C/c3ccccn3)c2)C1=O (stereo not given) | 21.8 µM (inactive)
40 | COc1cc(-c2cc(NC=O)c3ncc(-c4ccc(C(C)=O)cc4)n3c2)cc(OC)c1OC | 6.7 µM
41 | O=C(COC(=O)c1cc(-c2cccnc2)nc2ccccc12)Nc1ccc(F)cc1F | 32.5 µM (inactive)
42 | O=C(c1cc(=O)[nH]c2ccccc12)N1CCN(S(=O)(=O)c2ccc3ccccc3c2)CC1 | 17.4 µM (inactive)
43 | COc1cc(NC(=O)c2cc3nc(-c4ccccc4)cc(-c4ccccc4)n3n2)cc(OC)c1OC | 7.15 µM
44 | C[C@@H]1CN([C@H](C)CO)S(=O)(=O)c2ccc(C#Cc3ccccc3F)cc2O[C@H]1CN(C)C(=O)c1ccc2c(c1)OCO2 | 8.38 µM
45 | CCOc1cccc(Nc2cc3n(c(=O)n2)CCc2cc(OC)c(OC)cc2-3)c1 | 28 µM (inactive)
